Reference: patent publication US10829501B2 (BRISTOL-MYERS SQUIBB COMPANY, priority 2016, dated 2020)
Structures can show the parent of a compound that is named as a salt.

What follows are compounds tested against ROCK2 (Homo sapiens, UniProt O75116) (assay: ROCK2 kinase inhibition assay (LABCHIP 3000 Reader, FITC peptide substrate);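 further: rho kinase reaction read by separating phosphorylated from unphosphorylated peptide on chip, with inhibition of kinase activity computed per concentration across a dose-response series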).
Sequence of ROCK2 (O75116 whole entry, species assumed): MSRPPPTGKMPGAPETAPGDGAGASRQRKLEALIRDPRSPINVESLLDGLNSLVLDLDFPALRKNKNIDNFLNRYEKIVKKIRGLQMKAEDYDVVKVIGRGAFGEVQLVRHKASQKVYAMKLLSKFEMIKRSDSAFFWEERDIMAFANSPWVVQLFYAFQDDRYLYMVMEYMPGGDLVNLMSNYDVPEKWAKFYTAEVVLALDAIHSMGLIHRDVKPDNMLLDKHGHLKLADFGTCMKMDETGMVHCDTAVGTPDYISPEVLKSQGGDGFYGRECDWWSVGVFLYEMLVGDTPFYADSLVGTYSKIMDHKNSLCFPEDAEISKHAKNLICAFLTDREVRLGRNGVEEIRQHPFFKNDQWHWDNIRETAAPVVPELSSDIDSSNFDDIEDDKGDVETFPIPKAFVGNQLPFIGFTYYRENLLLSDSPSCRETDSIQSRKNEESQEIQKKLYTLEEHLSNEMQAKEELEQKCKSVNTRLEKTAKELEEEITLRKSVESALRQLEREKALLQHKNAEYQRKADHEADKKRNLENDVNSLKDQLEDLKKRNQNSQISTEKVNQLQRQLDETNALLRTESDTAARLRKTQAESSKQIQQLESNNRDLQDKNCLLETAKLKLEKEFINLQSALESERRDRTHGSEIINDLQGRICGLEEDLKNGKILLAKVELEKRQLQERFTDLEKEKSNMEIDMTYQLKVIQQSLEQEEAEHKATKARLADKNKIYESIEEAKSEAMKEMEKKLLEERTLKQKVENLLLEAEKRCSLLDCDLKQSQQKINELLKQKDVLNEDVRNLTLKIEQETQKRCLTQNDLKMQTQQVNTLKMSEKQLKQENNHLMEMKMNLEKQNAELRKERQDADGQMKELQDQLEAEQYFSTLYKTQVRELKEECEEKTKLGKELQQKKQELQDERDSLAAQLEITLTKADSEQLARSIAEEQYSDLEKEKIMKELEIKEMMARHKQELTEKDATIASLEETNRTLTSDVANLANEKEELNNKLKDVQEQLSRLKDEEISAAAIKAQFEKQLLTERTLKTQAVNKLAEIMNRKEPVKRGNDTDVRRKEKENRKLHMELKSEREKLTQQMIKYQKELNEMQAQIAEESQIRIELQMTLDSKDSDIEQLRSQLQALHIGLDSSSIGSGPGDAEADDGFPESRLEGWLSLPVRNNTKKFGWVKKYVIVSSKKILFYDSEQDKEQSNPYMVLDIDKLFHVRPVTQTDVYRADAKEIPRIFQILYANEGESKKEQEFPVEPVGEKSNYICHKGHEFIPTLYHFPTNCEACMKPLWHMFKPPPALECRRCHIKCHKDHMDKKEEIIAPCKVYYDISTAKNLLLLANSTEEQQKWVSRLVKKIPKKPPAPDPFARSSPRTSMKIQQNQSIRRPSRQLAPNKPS

| Compound | IC50 |
| --- | --- |
| NC(=O)c1cccnc1O[C@H]1CC2(C[C@H](NC(=O)c3c(C(F)(F)F)nc4ccc(Cl)cn34)C2)C1 (stereo partly drawn) [Example 139, N-((aR)-6-((3-carbamoylpyridin-2-yl)oxy)spiro[3.3]heptan-2-yl)-6-chloro-2-(trifluoromethyl) imidazo[1,2-a]pyridine-3-carboxamide, trifluoroacetate] | 250 to 2500 nM |
| NC(=O)c1cccnc1O[C@H]1CC2(C[C@H](NC(=O)c3cccc(Cn4ccnc4)c3)C2)C1 (stereo partly drawn) [Example 141, 2-(((aR)-6-(3-((1H-imidazol-1-yl)methyl)benzamido)spiro[3.3]heptan-2-yl)oxy) nicotinamide, trifluoroacetate] | 250 to 2500 nM |
| Cc1noc(-c2cccc(C(=O)N[C@H]3CC4(C3)C[C@H](Oc3ncccc3C(N)=O)C4)c2)n1 (stereo partly drawn) [Example 147, 2-(((aR)-6-(3-(3-methyl-1,2,4-oxadiazol-5-yl)benzamido)spiro[3.3]heptan-2-yl)oxy) nicotinamide, trifluoroacetate] | 250 to 2500 nM |
| NC(=O)c1cccnc1O[C@H]1CC2(C[C@H](NC(=O)c3cc(S(N)(=O)=O)c(F)cc3Cl)C2)C1 (stereo partly drawn) [Example 148, 2-(((aR)-6-(2-chloro-4-fluoro-5-sulfamoylbenzamido)spiro[3.3]heptan-2-yl)oxy) nicotinamide, trifluoroacetate] | 50 to 250 nM |
| NC(=O)c1cccnc1O[C@H]1CC2(C[C@H](NC(=O)c3ccc(F)c(S(N)(=O)=O)c3)C2)C1 (stereo partly drawn) [Example 150, 2-(((aR)-6-(4-fluoro-3-sulfamoylbenzamido)spiro[3.3]heptan-2-yl)oxy) nicotinamide, trifluoroacetate] | 5 to 50 nM |
| NC(=O)c1cccnc1O[C@H]1CC2(C[C@H](NC(=O)c3ccc4[nH]c(=O)c(=O)[nH]c4c3)C2)C1 (stereo partly drawn) [Example 151, N-((aR)-6-((3-carbamoylpyridin-2-yl)oxy)spiro[3.3]heptan-2-yl)-2,3-dioxo-1,2,3,4-tetrahydroquinoxaline-6-carboxamide, trifluoroacetate] | 250 to 2500 nM |
| NC(=O)c1cccnc1O[C@H]1CC2(C[C@H](NC(=O)c3ccc(Cl)c(S(N)(=O)=O)c3)C2)C1 (stereo partly drawn) [Example 152, 2-(((aR)-6-(4-chloro-3-sulfamoylbenzamido)spiro[3.3]heptan-2-yl)oxy) nicotinamide, trifluoroacetate] | 5 to 50 nM |
| Cn1c(C(=O)N[C@H]2CC3(C2)C[C@H](Oc2ncccc2C(N)=O)C3)cc2ccc(Cl)cc21 (stereo partly drawn) [Example 154, N-((aR)-6-((3-carbamoylpyridin-2-yl)oxy)spiro[3.3]heptan-2-yl)-6-chloro-1-methyl-1H-indole-2-carboxamide] | 50 to 250 nM |
| N#Cc1ccc(F)c(C(=O)N[C@H]2CC3(C2)C[C@H](Oc2ncccc2C(N)=O)C3)c1 (stereo partly drawn) [Example 155, 2-(((aR)-6-(5-cyano-2-fluorobenzamido)spiro[3.3]heptan-2-yl)oxy)nicotinamide] | 250 to 2500 nM |
| N#Cc1cc(C(=O)N[C@H]2CC3(C2)C[C@H](Oc2ncccc2C(N)=O)C3)ccc1F (stereo partly drawn) [Example 156, 2-(((aR)-6-(3-cyano-4-fluorobenzamido)spiro[3.3]heptan-2-yl)oxy) nicotinamide] | 50 to 250 nM |

Further lines, results first:

| IC50 | Compound |
| --- | --- |
| 50 to 250 nM | NC(=O)c1cccnc1O[C@H]1CC2(C[C@H](NC(=O)c3cccc(-n4cccn4)c3)C2)C1 (stereo partly drawn) [Example 134, 2-(((aR)-6-(3-(1H-pyrazol-1-yl)benzamido)spiro[3.3]heptan-2-yl)oxy) nicotinamide, trifluoroacetate] |
| 250 to 2500 nM | Cc1nc(-c2cccnc2)sc1C(=O)N[C@H]1CC2(C1)C[C@H](Oc1ncccc1C(N)=O)C2 (stereo partly drawn) [Example 135, N-((aR)-6-((3-carbamoylpyridin-2-yl)oxy)spiro [3.3]heptan-2-yl)-4-methyl-2-(pyridin-3-yl)thiazole-5-carboxamide, bis-trifluoroacetate] |
| 250 to 2500 nM | COc1ccc(-c2nc(C(=O)N[C@H]3CC4(C3)C[C@H](Oc3ncccc3C(N)=O)C4)cs2)cc1 (stereo partly drawn) [Example 136, N-((aR)-6-((3-carbamoylpyridin-2-yl)oxy)spiro[3.3]heptan-2-yl)-2-(4-methoxyphenyl) thiazole-4-carboxamide, trifluoroacetate] |
| 250 to 2500 nM | CC(C)NS(=O)(=O)c1ccccc1C(=O)N[C@H]1CC2(C1)C[C@H](Oc1ncccc1C(N)=O)C2 (stereo partly drawn) [Example 138, 2-(((aR)-6-(2-(N-isopropylsulfamoyl)benzamido)spiro[3.3]heptan-2-yl)oxy)nicotinamide, trifluoroacetate] |
| 250 to 2500 nM | NC(=O)c1cccnc1O[C@H]1CC2(C[C@H](NC(=O)c3ccccc3-c3nc4ccccc4[nH]3)C2)C1 (stereo partly drawn) [Example 140, 2-(((aR)-6-(2-(1H-benzo[d]imidazol-2-yl)benamido)spiro [3.3]heptan-2-yl)oxy) nicotinamide, trifluoroacetate] |
| 50 to 250 nM | Cc1nnnn1-c1cccc(C(=O)N[C@H]2CC3(C2)C[C@H](Oc2ncccc2C(N)=O)C3)c1 (stereo partly drawn) [Example 142, 2-(((aR)-6-(3-(5-methyl-1H-tetrazol-1-yl)benzamido)spiro[3.3]heptan-2-yl)oxy) nicotinamide, trifluoroacetate] |
| 250 to 2500 nM | COc1ccc(CCc2ccccc2C(=O)N[C@H]2CC3(C2)C[C@H](Oc2ncccc2C(N)=O)C3)cc1 (stereo partly drawn) [Example 143, 2-(((aR)-6-(2-(4-methoxyphenethyl)benzamido)spiro[3.3]heptan-2-yl)oxy)nicotinamide, trifluoroacetate] |
| 250 to 2500 nM | NC(=O)c1cccnc1O[C@H]1CC2(C[C@H](NC(=O)c3nc(-c4nc5ccccc5s4)cs3)C2)C1 (stereo partly drawn) [Example 144, 4-(benzo[d]thiazol-2-yl)-N-((aR)-6-((3-carbamoylpyridin-2-yl)oxy)spiro [3.3]heptan-2-yl)thiazole-2-carboxamide, trifluoroacetate] |
| 250 to 2500 nM | NC(=O)c1cccnc1O[C@H]1CC2(C[C@H](NC(=O)c3nc(-c4ccccn4)cs3)C2)C1 (stereo partly drawn) [Example 145, N-((aR)-6-((3-carbamoylpyridin-2-yl)oxy)spiro[3.3]heptan-2-yl)-4-(pyridin-2-yl) thiazole-2-carboxamide, trifluoroacetate] |
| 50 to 250 nM | Cn1c(-c2nc(C(=O)N[C@H]3CC4(C3)C[C@H](Oc3ncccc3C(N)=O)C4)cs2)nc2ccccc21 (stereo partly drawn) [Example 146, N-((aR)-6-((3-carbamoylpyridin-2-yl)oxy)spiro[3.3]heptan-2-yl)-2-(1-methyl-1H-benzo[d]imidazol-2-yl)thiazole-4-carboxamide, trifluoroacetate] |
| 50 to 250 nM | NC(=O)c1cccnc1O[C@H]1CC2(C[C@H](NC(=O)c3ccc4c(c3)S(=O)(=O)NC4=O)C2)C1 (stereo partly drawn) [Example 149, N-((aR)-6-((3-carbamoylpyridin-2-yl)oxy)spiro[3.3]heptan-2-yl)-3-oxo-2,3-dihydrobenzo[d] isothiazole-6-carboxamide 1,1-dioxide, trifluoroacetate] |
| 250 to 2500 nM | NC(=O)c1cccnc1O[C@H]1CC2(C[C@H](NC(=O)c3cn4cc(Cl)ccc4n3)C2)C1 (stereo partly drawn) [Example 153, N-((aR)-6-((3-carbamoylpyridin-2-yl)oxy)spiro[3.3]heptan-2-yl)-6-chloroimidazo[1,2-a]pyridine-2-carboxamide, trifluoroacetate] |
| 50 to 250 nM | N#Cc1cc(F)cc(C(=O)N[C@H]2CC3(C2)C[C@H](Oc2ncccc2C(N)=O)C3)c1 (stereo partly drawn) [Example 157, 2-(((aR)-6-(3-cyano-5-fluorobenzamido)spiro[3.3]heptan-2-yl)oxy) nicotinamide] |
